Results on 2 compounds are retold here after patent publication US7910741B2, “Nitrogen-containing heterocyclic derivatives and drugs containing the same as the active ingredient” (Ono Pharmaceutical Co., Ltd., priority 2003, dated 2011).

Assay [1] addresses T1, human CCR5 (Homo sapiens, UniProt P51681).
T1 construct: expressed in transfected cells; host or cells: Ba/F3
Put plainly: Migration test of human CCR5 expressing cell (hCCR5-Ba/F3 cell) against RANTES. The format is cell-based. As for the experimental part:
Migration test of human CCR5 expressing cell (hCCR5-Ba/F3 cell):
The isolation was carried out according to the method of the isolation of human CCR5 gene as described in the above Example 1.
Ba/F3 cells were statically cultured by using RMMI-1640 medium (Gibco BRL) containing antibiotics (Antibiotic-Antimycotic) (final concentration: penicillin G sodium (100 U/mL), streptomycin sulfate (100 μg/mL), amphotericin B (0.25 μg/mL)) (Gibco BRL), fetal bovine serum (FBS) (10%), 2-mercaptoethanol (55 μM) and mouse interleukin-3 (IL-3) (5 ng/mL) (Pepro Tech, Inc) in a carbon dioxide incubator (temperature: 37° C., CO2 concentration: 5%, humidity: 95%). […]
The human CCR5 expression level in the clone obtained by the method described in the above (1-C) was detected with FAC Sort (trade name, Becton, Dickinson) by detecting the cells with a fluorescence isothiocyanate (FITC)-labeled anti-human CCR5 antibody (BD Pharmingen) and analyzed. […]
Influence of a test compound on the migration ability of the human CCR5 expressing Ba/F3 cell against RANTES, MIP-1α or […] was examined. […] The cells on the microplate were suspended in 100 μl of a phosphate buffer (PBS), and 1/10 portion thereof was further diluted with 90 μl of PBS, moved on a white plate for fluorescence assay, and used as an assay sample for migrated cell numbers (final: 100 μl/well). […]

Assay [2] has as its target T1, human CCR5. Kind of assay: Inhibition test on the binding of RANTES to CCR5 (RANTES-induced transient increase of Ca ion in CCR5/CHO cells). The format is cell-based. The settings on record: inhibition of RANTES (10 nM)-induced Ca2+ transient increase; CCR5/CHO cell. As for the experimental part:
Inhibition test on the binding of RANTES to CCR5:
(1) Isolation of Human CCR5 Gene
Human placental cDNA was prepared using Marathon cDNA amplification kit (Clontech). PCR primers hCCR5Xbal-F1:
Using the human placental cDNA as the template and using Ex Taq (Takara), PCR reaction (2 minutes at 95° C.→(30 seconds at 95° C., 45 seconds at 60° C., 1 minute at 72° C.)×35 times) was carried out. The thus amplified PCR product was subjected to a 1% agarose gel electrophoresis, purified using QIAquick Gel Extraction Kit (QUIAGEN) and then digested with a restriction enzyme XbaI. The digested fragments were ligated to an expression vector pEF-BOS-bsr using DNA Ligation Kit Ver. 2 (Takara) and transformed into Escherichia coli DH5a. […]
The thus established human CCR5 stably over-expressing CHO cell (CCR5/CHO cell) was suspended in Ham's F-12 medium containing FBS (10%) and seeded at a density of […] into a 96 well plate. […] Transient increase in the intracellular Ca^2+ concentration induced by the human RANTES was measured using a Ca^2+ detector for 96 well use (Hamamatsu Photonics), and inhibition ratio (%) of the test compound was calculated by the following calculation formula. Inhibition ratio=(Ec−Ea)/Ec×100 • Ec: measured value of Ca^2+ transient increase by RANTES • Ea: measured value of Ca^2+ transient increase by RANTES when a test compound was added.

Structures can show the parent of a compound that is named as a salt.

T1 sequence (P51681 whole entry): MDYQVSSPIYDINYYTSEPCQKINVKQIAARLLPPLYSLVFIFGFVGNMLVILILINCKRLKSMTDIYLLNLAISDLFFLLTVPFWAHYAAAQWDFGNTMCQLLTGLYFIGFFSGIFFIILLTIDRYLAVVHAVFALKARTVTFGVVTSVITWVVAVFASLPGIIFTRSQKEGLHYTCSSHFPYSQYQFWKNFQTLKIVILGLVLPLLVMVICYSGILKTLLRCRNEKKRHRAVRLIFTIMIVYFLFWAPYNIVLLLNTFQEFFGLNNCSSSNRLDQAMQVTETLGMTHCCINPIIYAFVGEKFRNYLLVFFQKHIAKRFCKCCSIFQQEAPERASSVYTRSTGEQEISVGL

Regarding `CCCCN(C(=O)Nc1ccc(F)cc1F)C1CCN(Cc2ccc(Oc3ccc(NS(C)(=O)=O)cc3)cc2)CC1.Cl` [Example 23(126), N-[4-(4-{[4-(butyl{[(2,4-difluorophenyl)amino]carbonyl}amino)-1-piperidinyl]methyl}phenoxy)phenyl]methanesulfonamide hydrochloride], the “cell migration inhibition ratio” value came out at 42% at human CCR5 [1] (concentration 10 μM) and 77% on human CCR5 [1] (concentration 30 μM).

Take `CCCCN(C(=O)C1CCCCC1)C1CCN(Cc2ccc(Oc3ccc(NS(C)(=O)=O)cc3)cc2)CC1` [Example 5(2), N-butyl-N-[1-(4-{4-[(methylsulfonyl)amino]phenoxy}benzyl)piperidin-4-yl]cyclohexanecarboxamide hydrochloride]: the IC50 on human CCR5 [2] is 77 nM.
